The text below walks through data of paper PMC2664092 (Biochemistry, 2008).

For the test, the target named is T1, LpxL (Escherichia coli, UniProt P0ACV0).
T1 sequence (P0ACV0 1-306): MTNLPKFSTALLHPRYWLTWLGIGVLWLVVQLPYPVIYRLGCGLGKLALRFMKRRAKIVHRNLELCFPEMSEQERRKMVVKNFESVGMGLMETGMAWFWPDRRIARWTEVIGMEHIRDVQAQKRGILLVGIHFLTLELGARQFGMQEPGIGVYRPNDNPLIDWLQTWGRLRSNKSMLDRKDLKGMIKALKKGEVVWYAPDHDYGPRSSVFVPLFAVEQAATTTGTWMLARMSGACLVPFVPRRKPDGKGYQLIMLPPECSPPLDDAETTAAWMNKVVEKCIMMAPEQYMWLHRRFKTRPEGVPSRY
Briefly: […] TLC acyltransferase assay, PhosphorImager. In kind it is biochemical. As to conditions: read-out: apparent KM; 90 µM lauroyl-ACP (saturating); 0.1% Triton X-100, 0.1 mg/mL BSA, 5 mM MgCl2, 50 mM NaCl, 50 mM HEPES pH 7.5; 30 °C (standard assay); labelled compound.

On to `CCCCCCCCCCC[C@@H](O)CC(=O)N[C@H]1[C@H](OC[C@H]2O[C@H](OP(=O)(O)O)[C@H](NC(=O)C[C@H](O)CCCCCCCCCCC)[C@@H](OC(=O)C[C@H](O)CCCCCCCCCCC)[C@@H]2O)O[C@H](CO[C@]2(C(=O)O)C[C@@H](O[C@]3(C(=O)O)C[C@@H](O)[C@@H](O)[C@@H]([C@H](O)CO)O3)[C@@H](O)[C@@H]([C@H](O)CO)O2)[C@@H](OP(=O)(O)O)[C@@H]1OC(=O)C[C@H](O)CCCCCCCCCCC` [Kdo2-lipid IVA], for which the Michaelis-Menten constant (Km) (as a rule, the substrate concentration at which the rate is half of its maximum) came to 15 ± 3 µM.
